Assay results from ChEMBL document CHEMBL4138210, “Synthesis and biological evaluation of some novel diastereoselective benzothiazole β-lactam conjugates” (Eur J Med Chem, 2018).
Values after ≈ are worked out from the molar mass of the structure shown.

Tests used:
Pseudomonas aeruginosa = assay: Antimicrobial activity against Pseudomonas aeruginosa PAO1 after 24 to 48 hrs by broth serial dilution method; assay type: functional
Plasmodium falciparum = assay: Antimalarial activity against Plasmodium falciparum K1; assay type: functional, organism-based
[1] = Hemolytic activity against human RBC at 250 uM after 1 hr relative to control; assay type: ADME, cell-based, Erythrocyte; conditions: red blood cells (erythrocytes), read-out: Activity
Escherichia coli = assay: Antimicrobial activity against Escherichia coli ATCC […] after 24 to 48 hrs by broth serial dilution method; assay type: functional
Staphylococcus aureus = assay: Antimicrobial activity against Staphylococcus aureus ATCC 25923 after 24 to 48 hrs by broth serial dilution method; assay type: functional
[2] = Cytotoxicity against human HepG2 cells assessed as cell viability after 72 hrs by MTT assay relative to control; assay type: cell-based; parameters: concentration or dose not given beside the values; conditions: read-out: Activity
[3] = Plasmodium falciparum, K1, read-out: IC50

Structure (SMILES) | MIC (Pseudomonas aeruginosa) | IC50 (Plasmodium falciparum; [3]) | MIC (Escherichia coli) | MIC (Staphylococcus aureus) | IC50 (Plasmodium falciparum) | hemolysis at 1 h, 250 µM [1] | viability at 72 h [2]
O=C1[C@H](Oc2ccc(-c3nc4ccccc4s3)cc2)[C@H](c2ccc3ccccc3c2)N1c1ccccc1 | > 200 µg/mL | 16.3 µM | > 200 µg/mL | 30 µg/mL (≈ 60.2 µM) | – | 0.87% | 58%
Cc1ccc(N2C(=O)[C@H](Oc3ccc(-c4nc5ccccc5s4)cc3)[C@@H]2c2ccc(Cl)cc2)cc1 | > 200 µg/mL | 31.1 µM | > 200 µg/mL | 199 µg/mL (≈ 400 µM) | – | 1.16% | –
CC(C)c1ccc([C@H]2[C@@H](Oc3ccc(-c4nc5ccccc5s4)cc3)C(=O)N2c2ccc(N(C)C)cc2)cc1 | > 200 µg/mL | > 125 µM | > 200 µg/mL | 107 µg/mL (≈ 200 µM) | – | 1.03% | –
COc1ccc(N2C(=O)[C@H](Oc3ccc(-c4nc5ccccc5s4)cc3)[C@@H]2c2c3ccccc3cc3ccccc23)cc1 | > 200 µg/mL | – | > 200 µg/mL | 231 µg/mL (≈ 399 µM) | Nd(Insoluble) | 0.89% | –
Cc1ccc(N2C(=O)[C@H](Oc3cccc(-c4nc5ccccc5s4)c3)[C@@H]2c2ccc(Cl)cc2)cc1 | > 200 µg/mL | 76.7 µM | > 200 µg/mL | 199 µg/mL (≈ 400 µM) | – | 1.13% | –
COc1cc(N2C(=O)[C@H](Oc3ccc(-c4nc5ccccc5s4)cc3)[C@@H]2c2ccc([N+](=O)[O-])cc2)cc(OC)c1OC | > 200 µg/mL | – | > 200 µg/mL | 29 µg/mL (≈ 49.7 µM) | Nd(Insoluble) | 1.09% | 62.4%
O=C1[C@H](Oc2ccc(-c3nc4ccccc4s3)cc2)[C@H](/C=C/c2ccccc2)N1c1ccc(Cl)cc1 | > 200 µg/mL | 60.5 µM | > 200 µg/mL | 204 µg/mL (≈ 401 µM) | – | 2.18% | –

More lines, main results first:

MIC (Pseudomonas aeruginosa) | IC50 (Plasmodium falciparum; [3]) | MIC (Escherichia coli) | MIC (Staphylococcus aureus) | IC50 (Plasmodium falciparum) | Structure (SMILES) | hemolysis at 1 h, 250 µM [1] | viability at 72 h [2]
> 200 µg/mL | 20.4 µM | > 200 µg/mL | 205 µg/mL (≈ 400 µM) | – | COc1ccc(N2C(=O)[C@H](Oc3cccc(-c4nc5ccccc5s4)c3)[C@@H]2c2ccc(Cl)cc2)cc1 | 2.8% | –
> 200 µg/mL | 9.5 µM | > 200 µg/mL | 215 µg/mL (≈ 399 µM) | – | COc1ccc(N2C(=O)[C@H](Oc3ccc(-c4nc5ccccc5s4)cc3)[C@@H]2c2ccc(OC)c(OC)c2)cc1 | 0.82% | 70.1%
> 200 µg/mL | > 125 µM | > 200 µg/mL | 26 µg/mL (≈ 49.7 µM) | – | COc1ccc(N2C(=O)[C@H](Oc3cccc(-c4nc5ccccc5s4)c3)[C@@H]2c2ccc([N+](=O)[O-])cc2)cc1 | 1.56% | 99.5%
> 200 µg/mL | 10.4 µM | > 200 µg/mL | 26 µg/mL (≈ 49.7 µM) | – | COc1ccc(N2C(=O)[C@H](Oc3ccc(-c4nc5ccccc5s4)cc3)[C@@H]2c2ccc([N+](=O)[O-])cc2)cc1 | 1.11% | 71.4%
> 200 µg/mL | 40.7 µM | > 200 µg/mL | 205 µg/mL (≈ 400 µM) | – | COc1ccc(N2C(=O)[C@H](Oc3ccc(-c4nc5ccccc5s4)cc3)[C@@H]2c2ccc(Cl)cc2)cc1 | 0.93% | –
> 200 µg/mL | 17.7 µM | > 200 µg/mL | 26 µg/mL (≈ 49.7 µM) | – | COc1ccc(N2C(=O)[C@H](Oc3ccc(-c4nc5ccccc5s4)cc3)[C@@H]2c2cccc([N+](=O)[O-])c2)cc1 | 1.02% | 62.8%
> 200 µg/mL | 11.4 µM | > 200 µg/mL | 25 µg/mL (≈ 49.3 µM) | – | Cc1ccc(N2C(=O)[C@H](Oc3ccc(-c4nc5ccccc5s4)cc3)[C@@H]2c2ccc([N+](=O)[O-])cc2)cc1 | 1.25% | 80.7%
> 200 µg/mL | 6 µM | > 200 µg/mL | 215 µg/mL (≈ 400 µM) | – | CCOc1ccc(N2C(=O)[C@H](Oc3cccc(-c4nc5ccccc5s4)c3)[C@@H]2c2ccc([N+](=O)[O-])cc2)cc1 | 1.02% | 101%
> 200 µg/mL | 11.8 µM | > 200 µg/mL | 215 µg/mL (≈ 400 µM) | – | CCOc1ccc(N2C(=O)[C@H](Oc3ccc(-c4nc5ccccc5s4)cc3)[C@@H]2c2ccc([N+](=O)[O-])cc2)cc1 | 2.29% | 74.8%
